Measured values from paper PMC7617869, “Molecular glues that inhibit deubiquitylase activity and inflammatory signaling” (Nature Structural & Molecular Biology, 2025).
Where “and” joins values, the source holds several entries; their conditions need not be identical. Equal values may be shown once.

What was measured:
Format in all cases: cell-based, human
[1] = tested on: composite ISG score in SSc PBMCs; assay: SSc PBMC composite ISG score (CXCL10, IFIT1, ISG15, MX1); conditions: for CXCL10 / IFIT1 / ISG15 / MX1: sheet Ext. 9e, SSc PBMCs, 20 values per compound (one per patient sample); for composite ISG score: unstimulated SSc PBMCs (n = 20), 2 µM, 16 h, relative to AP-5-145
Experimental: PBMCs in vitro experiments
Peripheral blood mononuclear cells (PBMCs) from healthy and SSc donors were separated using density gradient method (Leucosep™, Greiner Bio-One International) from EDTA anticoagulated peripheral blood; isolated cells were washed twice by PBS. PBMCs were then incubated in RPMI1640 […]
For healthy PBMCs, cells were stimulated with 20 ng/mL of IFN (+/- compounds or DMSO). For SSc PBMCs, cells were in basal conditions with no additional IFN stimulation. Cells were centrifuged at 300 g for 10 minutes. […]
RNA was extracted from cell pellets using TRIzol™ (ThermoFisher
Scientific, Waltham, MA) and processed using Quick-RNA Miniprep Kit (Zymo Research) as per the manufacturer’s instruction.
For Type I IFN signalling analysis, the human IFN I RT2 Profiler PCR Array (Qiagen, PAMM-016ZE) was performed on available RNA from healthy (n=3) and SSc (n=9) donors. RNA was converted to cDNA using RT2 First Strand Kit (Qiagen). Next, the cDNA was mixed with RT2 SYBR Green Mastermix (Qiagen, Venlo). Successful PCR performance was confirmed by assay tests for genomic DNA contamination, RNA sample quality, as well as single melt curve determination and <35 Ct for each gene, leading to validated gene expression of 67 genes. Relative expression for each gene was determined, firstly by ∆CT calculated using the geometric mean of 4 housekeeping genes (ACTB, GAPDH, HPRT1, RPLP0), followed by 2^(-∆CT), and expressed as fold change to control, according to manufacturer’s guidance. IFN2α-induced ISGs in healthy donors were determined using a Student’s t-test (two-tail distribution and equal variances) on the triplicate fold change in 2^(-ΔCT) values between […]
donors). Heatmaps were generated using the “pheatmap” function in R (v4.0.2) and RStudio (v1.3.1093) applying row scaling to standardise the expression data across samples (R core team 2020.
R Foundation for Statistical Computing). The IFN2α inducible genes determined in healthy donors […]
171-C. To account for Type I IFN signalling heterogeneity across samples, the mean 2^(-∆CT) for each […]
relative gene expression, illustrated as a fold change and visualised in log2. The Type I IFN signalling array data for the patient samples is included in Source Data Figure 6, Extended Data Fig. 9.

[2] = tested on: ISRE in THP-1 cells (TLR3 agonist polyI:C); assay: THP-1 ISRE luciferase reporter, polyI:C stimulation; conditions: polyI:C 1 µg/mL, 4 μM compound, 16 h
Experimental: THP-1 in vitro experiments
THP-1-DualTM cells (InvivoGen), derived from a human monocytic cell line, isolated from a patient with acute monocytic leukaemia, were cultured as per manufacturer’s guidance. Cells were seeded at 1x10^6 cells/mL in RPMI1640 media containing 10% fetal bovine serum (FBS), 1% penicillin-streptomycin (PS) (Gibco Laboratories) with DMSO (0.1%) (control) or in media containing JMS-175- […]
ng/mL) (Merck Life Science), ODN 2216 (1 µM) (Miltenyi Biotec), or Poly:IC (1 µg/mL) (InvivoGen).
Tofacitinib (Cambridge Biosciences) at 0.4 µM was used for comparison against a known JAK inhibitor.
Cells were centrifuged at 300 g for 5 minutes. Supernatant was removed and subjected to simultaneous study of the NF -κB pathway, by monitoring the activity of secreted alkaline phosphatase reporter (SEAP), and the IRF pathway, by assessing the activity o f a secreted Lucia luciferase using QUANTI - Blue ™ Solution and QUANTI -Luc™ 4 Lucia/Gaussia (InvivoGen), respectively, as per manufacturer’s instructions. Pelleted cells were used for FACS analysis using IFNα/β R1 APC-conjugated antibody or isotype control (Biotechne, FAB245A and IC002A), or unstained staining procedure with and without Zombie GreenTM (Biolegend). Samples were analysed using CytoFlex LX (Beckman) (50,000 live cells per condition). Median fluorescence intensity for APC channel gated on single cell live cells was analysed and compared as a percentage to control (no stimulation condition). […]

[3] = tested on: IFNAR1 cell surface levels in MCF10A BRCC45 R137A cells; assay: MCF10A BRCC45 R137A IFNAR1 cell surface levels (FACS); conditions: for IFNAR1 cell surface levels (Fig. 5g): BRCC45 KO + BRCC45 R137A, IFN + compound, No IFN about 100; for IFNAR1 cell surface levels: BRCC45 R137A cells, IFN 50 ng/ml, 5 μM, 90 min
Experimental: To study the direct effect of BRISC DUB inhibitors, IFNAR1 surface levels were measured using flow cytometry (FACS) analysis. For this purpose, MCF10A WT and MCF10A BRCC45 KO cells expressing […]
BRCC45 WT or BRCC45 R137A were used. […]
minutes prior to the addition of 50 ng/mL of hIFN-Iα for various time points (45 minutes and 90 minutes).
After IFN treatment, cells were dissociated from plate using cell dissociation Buffer (ThermoFisher Scientific, #13150016) and were stained with LIVE/DEAD™ Fixable Violet Dead Cell Stain Kit, for 405 nm excitation (ThermoFisher Scientific, #L34963) for 30 minutes, as per the kit protocol. The cells were then washed using FACS buffer (DPBS, 1% BSA, 2 mM EDTA, 0.09% sodium azide) and transferred to 96-well round bottom plates. Resuspended cells were divided into three repeats for each sample, each was surface stained for 1 hour at 4 °C with: 1. Human IFN-alpha/beta R1 Antibody (R&D systems, #MAB245), 2. Mouse IgG1 Isotype Control (R&D systems, #MAB002), 3. FACS buffer (control cells).
Following incubation, cells were washed once with FACS buffer and were labelled for 30 minutes at 4 °C with either Biotin-SP-conjugated AffiniPure Donkey Anti-Mouse IgG (H+L) (Jackson Immunoresearch Laboratories) for samples 1 and 2 or with FACS buffer for sample 3. Cells were washed twice with FACS buffer and were labelled for 15 minutes at 4 °C with either R-Phycoerythrin-conjugated Streptavidin (Jackson Immunoresearch Laboratories) for samples 1 and 2 or with FACS buffer for sample 3. Cells were washed 3 times with FACS buffer and were analysed by FACS (MACSQuant, Miltenyi Biotec). For each sample from group 1 the Geo mean fluorescence intensity (MFI) of its isotype sample was reduced. IFNAR1 cell surface percentage was calculated by 100*(MFI

Structure (SMILES) | CXCL10 [1] | IFIT1 [1] | ISG15 [1] | MX1 [1] | composite ISG score [1] | ISRE luciferase signal in THP-1 supernatant [2] | IFNAR1 cell surface levels (Fig. 5g) [3] | IFNAR1 cell surface levels [3]
O=C(NC1C2CNCC21)c1nn(C(=O)c2c(Cl)cccc2Cl)cc1NC(=O)c1c(Cl)cccc1Cl (stereo not shown) [FX-171-C] | 1.514 and 0.251 and 1.066 and 0.167 and 0.5332 and 0.7533 and 1.612 and 0.6702 and 0.5368 and 1.6313 and 0.1436 and 0.6323 and 0.4166 and 0.1288 and 0.6936 and 0.646 and 0.6924 and 0.6022 and 0.5701 and 0.08999 | 0.2868 and 0.437 and 1.363 and 0.3735 and 0.4257 and 0.6696 and 0.8252 and 0.3503 and 0.5958 and 0.5382 and 1.388 and 0.256 and 0.9671 and 0.1288 and 0.6936 and 1.317 and 1.359 and 0.9945 and 0.8122 and 0.05751 | 0.9038 and 0.4123 and 1.522 and 0.5454 and 1.252 and 0.967 and 0.791 and 0.6842 and 0.9244 and 0.2949 and 0.1516 and 1.006 and 0.9237 and 0.1709 and 0.7851 and 1.799 and 0.9132 and 0.323 and 0.9506 and 0.1287 | 0.4428 and 0.9634 and 1.459 and 0.4711 and 0.7459 and 1.024 and 0.9419 and 0.919 and 0.9953 and 1.074 and 1.146 and 0.5685 and 0.9032 and 0.1777 and 0.6324 and 0.9421 and 1.363 and 0.7344 and 1.47 and 0.4028 | reduced the composite ISG score | 374 and 491 and 321 | 49.6989 and 47.3367 and 48.4484 | not reduced
O=C(NC1CCNCC1)c1nn(C(=O)c2c(Cl)cccc2Cl)cc1NC(=O)c1c(Cl)cccc1Cl [JMS-175-2] | 0.2536 and 3.414 and 0.2313 and 0.3588 and 1.2272 and 0.4193 and 1.168 and 0.8338 and 0.6055 and 1.239 and 0.3406 and 0.08106 and 0.000123 and 0.3625 and 0.05611 and 0.1808 and 1.381 and 0.5771 and 0.5421 and 0.1347 | 0.2366 and 1.382 and 0.8014 and 0.1818 and 0.6785 and 0.4193 and 1.168 and 0.7189 and 1.817 and 1.319 and 1.1 and 0.2301 and 0.1676 and 0.4861 and 0.2758 and 0.6203 and 0.8038 and 0.5004 and 0.169 and 0.3186 | 0.4563 and 0.8641 and 0.6274 and 0.4056 and 0.5557 and 0.616 and 1.197 and 0.8342 and 1.6 and 0.5253 and 1.319 and 0.4936 and 0.2916 and 0.7218 and 0.3961 and 0.8921 and 0.9105 and 0.5615 and 0.4313 and 0.6786 | 0.223 and 0.8929 and 1.04 and 0.5006 and 0.9521 and 0.6554 and 1.256 and 0.9444 and 1.592 and 1.073 and 1.238 and 0.494 and 0.2991 and 0.4305 and 0.1662 and 0.4949 and 1.066 and 0.6875 and 0.4778 and 0.5729 | reduced the composite ISG score | 486.333 and 543 and 491 | 50.1158 and 49.56 and 49.1431 | not reduced
Cn1cc(NC(=O)c2c(Cl)cccc2Cl)c(C(=O)NC2CCN(C(=O)c3c(Cl)cccc3Cl)CC2)n1 [AP-5-145] | 1.751 and 0.25 and 0.7382 and 0.8655 and 0.7967 and 0.4021 and 0.5617 and 1.22 and 0.6479 and 2.776 and 1.1866 and 0.5017 and 0.551 and 0.4363 and 0.9229 and 0.6553 and 1.25 and 0.7409 and 0.339 and 0.3688 | 0.6337 and 0.5474 and 0.8263 and 0.6524 and 0.6203 and 0.9706 and 0.5382 and 1.166 and 0.8191 and 0.9287 and 1.423 and 0.5364 and 0.8639 and 0.4363 and 0.9229 and 1.253 and 1.322 and 1.329 and 0.8934 and 0.7188 | 1.377 and 0.6237 and 1.266 and 0.7354 and 0.9639 and 0.9802 and 0.5935 and 1.766 and 0.659 and 0.6409 and 0.6943 and 0.6974 and 1.099 and 0.4464 and 1.007 and 1.459 and 1.622 and 0.4684 and 1.547 and 1.209 | 0.9424 and 0.9381 and 0.6518 and 0.8276 and 0.6072 and 1.137 and 0.7908 and 1.689 and 0.9753 and 0.9313 and 1.364 and 0.7737 and 0.8832 and 0.4676 and 0.7628 and 0.9541 and 1.254 and 0.9134 and 1.016 and 0.8618 |  | 502.333 and 324.667 and 347.333 | 55.396 and 54.5623 and 54.7013 | 
